Our source for the IC50 values is patent US10730889B2, “Amido spirocyclic amide and sulfonamide derivatives” (Forma TM, LLC, priority 2012, dated 2020).

Each structure is given as a SMILES string.

This experiment deals with A2780 cells. In words: In-vitro cell proliferation assay (SRB, 72 hours). It counts as cell-based. Particulars: Homo sapiens, A2780, 72 h, A2780 cells, 72 hours, SRB; read-out: Cell Proliferation (IC50).

Description: Assay 2: In-Vitro Cell Proliferation Assay
Assay Method. […] The compounds were then further diluted to 10× final concentration in culture media, whereupon 20 μL of each dilution was added to the plated cells with controls (e.g. DMSO and blank) to make a final volume of 200 μL. The final DMSO concentration in each well was 0.1%. The plates were then incubated for 72 hours at 37° C. in a 5% CO2 incubator. The number of viable cells was then assessed using sulforhodamine B (SRB) assay. Cells were fixed at 4° C. for 1 hour with the addition of 50 μL 30% trichloroacetic acid (TCA) to make a final concentration of 6% TCA. The plates were washed four times with H2O and allowed to dry for at least 1 hour, whereupon 100 μL of a 4% SRB in 1% acetic acid solution was added to each well and incubated at room temperature for at least 30 min. The plates were then washed three times with 1% acetic acid, dried, and treated with 100 μL of 10 mM Tris-Base solution. The plates were then read in a microplate reader at an absorbance of 570 nm. Background was generated on a separate plate with media only.
Determination of IC50 Values. First, the signals from the background plate were averaged, then the background was subtracted from the test plates.

Take `O=C(NCC1CC12CCN(C(=O)c1ccncc1)CC2)c1cc2ccncc2o1` (centres unmarked) [Example 97, N-[[6-(pyridine-4-carbonyl)-6-azaspiro[2.5]octan-2-yl]methyl]furo[2,3-c]pyridine-2-carboxamide]: the IC50 is 2000 nM. Regarding `O=C(NCC1CC12CCN(C(=O)c1ccccn1)CC2)c1cc2ccncc2o1` (centres unmarked) [Example 98, N-[[6-(pyridine-2-carbonyl)-6-azaspiro[2.5]octan-2-yl]methyl]furo[2,3-c]pyridine-2-carboxamide], the IC50 is 2000 nM. Turning to `O=C(NCC1CC12CCN(C(=O)c1cocn1)CC2)c1cc2ccncc2o1` (centres unmarked) [Example 99, N-[[6-(oxazole-4-carbonyl)-6-azaspiro[2.5]octan-2-yl]methyl]furo[2,3-c]pyridine-2-carboxamide], the IC50 was 2000 nM.

With `O=C(NCC1CC12CCN(C(=O)c1nc[nH]n1)CC2)c1cc2ccncc2o1` (centres unmarked) [Example 100, N-[[6-(1H-1,2,4-triazole-3-carbonyl)-6-azaspiro[2.5]octan-2-yl]methyl]furo[2,3-c]pyridine-2-carboxamide], the IC50 was found to be 2000 nM.

As for `O=C(NCC1CC12CCN(C(=O)c1c[nH]cn1)CC2)c1cc2ccncc2o1` (centres unmarked) [Example 101, N-[[6-(1H-imidazole-4-carbonyl)-6-azaspiro[2.5]octan-2-yl]methyl]furo[2,3-c]pyridine-2-carboxamide], the IC50 turned out to be 2000 nM. For `O=C(NCC1CC12CCN(C(=O)c1ccncn1)CC2)c1cc2ccncc2o1` (centres unmarked) [Example 102, N-[[6-(pyrimidine-4-carbonyl)-6-azaspiro[2.5]octan-2-yl]methyl]furo[2,3-c]pyridine-2-carboxamide] the value was 2000 nM; for `O=C(NCC1CC12CCN(C(=O)c1cccnc1)CC2)c1cc2ccncc2o1` (centres unmarked) [Example 103, N-[[6-(pyridine-3-carbonyl)-6-azaspiro[2.5]octan-2-yl]methyl]furo[2,3-c]pyridine-2-carboxamide], 2000 nM; for `O=C(NCC1CC12CCN(C(=O)c1cc[nH]n1)CC2)c1cc2ccncc2o1` (centres unmarked) [Example 104, N-[[6-(1H-pyrazole-3-carbonyl)-6-azaspiro[2.5]octan-2-yl]methyl]furo[2,3-c]pyridine-2-carboxamide], 2000 nM. For `Cn1cnc(C(=O)N2CCC3(CC2)CC3CNC(=O)c2cc3ccncc3o2)c1` (centres unmarked) [Example 105, N-[[6-(1-methylimidazole-4-carbonyl)-6-azaspiro[2.5]octan-2-yl]methyl]furo[2,3-c]pyridine-2-carboxamide] the value was 755 nM. As to `Cc1n[nH]cc1C(=O)N1CCC2(CC1)CC2CNC(=O)c1cc2ccncc2o1` (centres unmarked) [Example 106, N-[[6-(3-methyl-1H-pyrazole-4-carbonyl)-6-azaspiro[2.5]octan-2-yl]methyl]furo[2,3-c]pyridine-2-carboxamide], the IC50 turned out to be 743 nM. For `Cn1nccc1C(=O)N1CCC2(CC1)CC2CNC(=O)c1cc2ccncc2o1` (centres unmarked) [Example 107, N-[[6-(2-methylpyrazole-3-carbonyl)-6-azaspiro[2.5]octan-2-yl]methyl]furo[2,3-c]pyridine-2-carboxamide] the value was 2000 nM; for `Cc1cc(C(=O)N2CCC3(CC2)CC3CNC(=O)c2cc3ccncc3o2)n[nH]1` (centres unmarked) [Example 108, N-[[6-(5-methyl-1H-pyrazole-3-carbonyl)-6-azaspiro[2.5]octan-2-yl]methyl]furo[2,3-c]pyridine-2-carboxamide], 449 nM. For `Cn1ccc(C(=O)N2CCC3(CC2)CC3CNC(=O)c2cc3ccncc3o2)n1` (centres unmarked) [Example 109, N-[[6-(1-methylpyrazole-3-carbonyl)-6-azaspiro[2.5]octan-2-yl]methyl]furo[2,3-c]pyridine-2-carboxamide] the value was 299 nM. To `O=C(NCC1CC12CCN(C(=O)c1cccnn1)CC2)c1cc2ccncc2o1` (centres unmarked) [Example 110, N-[[6-(pyridazine-3-carbonyl)-6-azaspiro[2.5]octan-2-yl]methyl]furo[2,3-c]pyridine-2-carboxamide] belongs 2000 nM; to `O=C(NCC1CC12CCN(C(=O)c1cnccn1)CC2)c1cc2ccncc2o1` (centres unmarked) [Example 112, N-[[6-(pyrazine-2-carbonyl)-6-azaspiro[2.5]octan-2-yl]methyl]furo[2,3-c]pyridine-2-carboxamide], 2000 nM.

As to `O=C(NCC1CC12CCN(C(=O)c1ccnnc1)CC2)c1cc2ccncc2o1` (centres unmarked) [Example 113, N-[[6-(pyridazine-4-carbonyl)-6-azaspiro[2.5]octan-2-yl]methyl]furo[2,3-c]pyridine-2-carboxamide], the IC50 was 2000 nM. For `Cn1cc(C(=O)N2CCC3(CC2)CC3CNC(=O)c2cc3ccncc3o2)cn1` (centres unmarked) [Example 114, N-[[6-(1-methylpyrazole-4-carbonyl)-6-azaspiro[2.5]octan-2-yl]methyl]furo[2,3-c]pyridine-2-carboxamide] the value was 2000 nM; for `Cc1cc(C(=O)N2CCC3(CC2)CC3CNC(=O)c2cc3ccncc3o2)nn1C` (centres unmarked) [Example 115, N-[[6-(1,5-dimethylpyrazole-3-carbonyl)-6-azaspiro[2.5]octan-2-yl]methyl]furo[2,3-c]pyridine-2-carboxamide], 37.6 nM; for `Cc1cc(C(=O)N2CCC3(CC2)CC3CNC(=O)c2cc3ccncc3o2)no1` (centres unmarked) [Example 117, N-[[6-(5-methylisoxazole-3-carbonyl)-6-azaspiro[2.5]octan-2-yl]methyl]furo[2,3-c]pyridine-2-carboxamide], 752 nM. With `Cc1nonc1C(=O)N1CCC2(CC1)CC2CNC(=O)c1cc2ccncc2o1` (centres unmarked) [Example 118, N-[[6-(4-methyl-1,2,5-oxadiazole-3-carbonyl)-6-azaspiro[2.5]octan-2-yl]methyl]furo[2,3-c]pyridine-2-carboxamide], the IC50 worked out at 1070 nM. To `Cc1ncccc1C(=O)N1CCC2(CC1)CC2CNC(=O)c1cc2ccncc2o1` (centres unmarked) [Example 119, N-[[6-(2-methylpyridine-3-carbonyl)-6-azaspiro[2.5]octan-2-yl]methyl]furo[2,3-c]pyridine-2-carboxamide] belongs 446 nM; to `Cc1ccncc1C(=O)N1CCC2(CC1)CC2CNC(=O)c1cc2ccncc2o1` (centres unmarked) [Example 120, N-[[6-(4-methylpyridine-3-carbonyl)-6-azaspiro[2.5]octan-2-yl]methyl]furo[2,3-c]pyridine-2-carboxamide], 92.8 nM; to `Cc1cc(C(=O)N2CCC3(CC2)CC3CNC(=O)c2cc3ccncc3o2)ccn1` (centres unmarked) [Example 121, N-[[6-(2-methylpyridine-4-carbonyl)-6-azaspiro[2.5]octan-2-yl]methyl]furo[2,3-c]pyridine-2-carboxamide], 1090 nM. To `Cc1cnc(C(=O)N2CCC3(CC2)CC3CNC(=O)c2cc3ccncc3o2)cn1` (centres unmarked) [Example 122, N-[[6-(5-methylpyrazine-2-carbonyl)-6-azaspiro[2.5]octan-2-yl]methyl]furo[2,3-c]pyridine-2-carboxamide] belongs 2000 nM; to `O=C(NCC1CC12CCN(C(=O)c1cc(C3CC3)n[nH]1)CC2)c1cc2ccncc2o1` (centres unmarked) [Example 123, N-[[6-(3-cyclopropyl-1H-pyrazole-5-carbonyl)-6-azaspiro[2.5]octan-2-yl]methyl]furo[2,3-c]pyridine-2-carboxamide], 83 nM. To `CCn1ncc(C(=O)N2CCC3(CC2)CC3CNC(=O)c2cc3ccncc3o2)c1C` (centres unmarked) [Example 124, N-[[6-(1-ethyl-5-methyl-pyrazole-4-carbonyl)-6-azaspiro[2.5]octan-2-yl]methyl]furo[2,3-c]pyridine-2-carboxamide] belongs 124 nM; to `Cc1noc(C)c1C(=O)N1CCC2(CC1)CC2CNC(=O)c1cc2ccncc2o1` (centres unmarked) [Example 125, N-[[6-(3,5-dimethylisoxazole-4-carbonyl)-6-azaspiro[2.5]octan-2-yl]methyl]furo[2,3-c]pyridine-2-carboxamide], 221 nM; to `CCn1cc(C(=O)N2CCC3(CC2)CC3CNC(=O)c2cc3ccncc3o2)cn1` (centres unmarked) [Example 126, N-[[6-(1-ethylpyrazole-4-carbonyl)-6-azaspiro[2.5]octan-2-yl]methyl]furo[2,3-c]pyridine-2-carboxamide], 833 nM. `N#Cc1ccc(C(=O)N2CCC3(CC2)CC3CNC(=O)c2cc3ccncc3o2)cn1` (centres unmarked) [Example 127, N-[[6-(6-cyanopyridine-3-carbonyl)-6-azaspiro[2.5]octan-2-yl]methyl]furo[2,3-c]pyridine-2-carboxamide]: the IC50 worked out at 2000 nM. To `Cc1nc(C)c(C(=O)N2CCC3(CC2)CC3CNC(=O)c2cc3ccncc3o2)o1` (centres unmarked) [Example 128, N-[[6-(2,4-dimethyloxazole-5-carbonyl)-6-azaspiro[2.5]octan-2-yl]methyl]furo[2,3-c]pyridine-2-carboxamide] belongs 29.2 nM; to `O=C(NCC1CC12CCN(C(=O)c1ccnc(N3CCOCC3)c1)CC2)c1cc2ccncc2o1` (centres unmarked) [Example 129, N-[[6-(2-morpholinopyridine-4-carbonyl)-6-azaspiro[2.5]octan-2-yl]methyl]furo[2,3-c]pyridine-2-carboxamide], 37.3 nM. To `Cn1cc(-c2ccno2)c(C(=O)N2CCC3(CC2)CC3CNC(=O)c2cc3ccncc3o2)n1` (centres unmarked) [Example 132, N-[[6-(4-isoxazol-5-yl-1-methyl-pyrazole-3-carbonyl)-6-azaspiro[2.5]octan-2-yl]methyl]furo[2,3-c]pyridine-2-carboxamide] belongs 7.2 nM; to `CC(=O)Nc1cc(C(=O)N2CCC3(CC2)CC3CNC(=O)c2cc3ccncc3o2)ccn1` (centres unmarked) [Example 133, N-[[6-(2-acetamidopyridine-4-carbonyl)-6-azaspiro[2.5]octan-2-yl]methyl]furo[2,3-c]pyridine-2-carboxamide], 696 nM; to `O=C(NCC1CC12CCN(C(=O)c1c[nH]nc1-n1cnnn1)CC2)c1cc2ccncc2o1` (centres unmarked) [Example 134, N-[[6-[3-(tetrazol-1-yl)-1H-pyrazole-4-carbonyl]-6-azaspiro[2.5]octan-2-yl]methyl]furo[2,3-c]pyridine-2-carboxamide], 514 nM. To `CC(=O)Nc1cccc(C(=O)N2CCC3(CC2)CC3CNC(=O)c2cc3ccncc3o2)n1` (centres unmarked) [Example 135, N-[[6-(6-acetamidopyridine-2-carbonyl)-6-azaspiro[2.5]octan-2-yl]methyl]furo[2,3-c]pyridine-2-carboxamide] belongs 36.4 nM.
